The experiment deals with T1, HIV-1 Reverse Transkriptase (Human immunodeficiency virus type 1 group M subtype B, UniProt P03366).
T1 construct: Rekombinante HIV-1 Reverse Transkriptase (66 kDa); made in house; host or cells: Escherichia coli
In words: HIV-1 RT test (3H-TTP incorporation, recombinant enzyme). The experiment is classed as biochemical. To be noted: positive control; read-out: IC₅₀ (HIV-1 RT). The text has this: Zur Untersuchung der biologischen Aktivität wird das aufgereinigte Protein (P 1) in einem Ribosomen-Hemmtest und einem HIV-1 RT Test eingesetzt. Im Ribosomen-Hemmtest wird die Inaktivierung von Ribosomen in einem Retikulozyten-Lysat durch das erfindungsgemäße Protein gemessen (vgl. Krawetz et al., 1983). Im HIV-1 RT Test wird die Hemmung der HIV-1 Reverse Transkriptase (HIV-1 RT) durch das erfindungsgemäße Protein P 1 bestimmt (vgl. Tan et al., 1991).
Enzym: Rekombinante HIV-1 Reverse Transkriptase (66 kDa), exprimiert in Escherichia coli (vgl. Tan et al., 1991 und darin zitierte Literatur). Die Aktivität des Enzyms in RT-Testsystemen ist von viralem Enzym nicht zu unterscheiden. Protein-Konzentration: 0,11 mg/ml; Aktivität: Einbau von 238 nM TTP/mg Protein in 10 min bei 37°C. Testansatz: 50 mM Tris-HCl, pH 8,0, 150 mM KCl, 5 mM MgCl₂, 0,5 mM EGTA, 5 mM Dithiothreitol, 0,3 mM Glutathion, 2,5 µg/ml BSA, 41 µM poly(A) (Σ₂₆₀(mM) = 7,8), 9,5 µM oligo(dT)₁₂₋₁₈ (Σ₂₆₅(mM) = 5,6), 0,05% Triton X-100, 20 µm TTP und 0,5 µCi (³H)-TTP (Endvolumen 100 µl). Probenlösung: 10 µl, in H₂O oder 25 mM Tris-HCl, pH 8,4. HIV-1 RT: 10 µl (0,11 µg in Testpuffer)
Die Polymerisationsreaktion wird durch den Zusatz der HIV-1 RT-Lösung zum Testansatz gestartet. Nach einer Inkubationszeit von 1 Stunde (37°C) wird die Reaktion durch Zugabe von 25 µl einer 0,1 M EGTA-Lösung gestoppt und die Ansätze auf Eis gekühlt. […]

Consider `COc1cc2c(ccc3c4cc(OC)c(OC)cc4c[n+](C)c23)cc1O` [Fagaronin-Chlorid], for which the IC50 is 13 µM.
